# Test results reported in US20260157955A1, “DEDIFFERENTIATED PLANT CELLS OF THE GENUS PAEONIA, EXTRACTS THEREOF AND COSMETIC USES THEREOF” (L'OREAL, priority 2021, published 2026).
# What was measured:
# Assay type in all cases: cell-based
# Details in all cases: 0.1 μM, 24 hours, human epidermal keratinocytes, n=2, vs control
# SPRR1A = assay: Expression of transcripts in human keratinocytes (RT-qPCR): SPRR1A
# Method: (§1) Human epidermal keratinocytes were seeded in a 24-well culture plate and cultured for 72 hours at 37° C. and 5% CO2 in culture medium with renewal of the culture medium after the first 24 hours. At the end of the incubation, the culture medium was replaced with assay medium (supplemented with 1.5 mM CaCl2) containing starting or reference material (retinoic acid) or not containing same (control), and cells were incubated for another 24 hours. All the experimental conditions were performed in n=2. At the end of the treatment, the cells were washed twice in PBS (without CaCl2, without MgCl2) and RNA extraction was carried out using TriPure Isolation Reagent® according to the manufacturer's recommendations. The relative expression of the selected markers was measured by two-step RT-qPCR. First, reverse transcription was performed with the aid of Transcriptor Reverse Transcriptase (Roche) according to the manufacturer's recommendations. Then, PCR experiments were performed using a LightCycler® 480 real-time PCR system with a SYBR®Green incorporation measurement system (Roche).
# AQP3 = assay: Expression of transcripts in human keratinocytes (RT-qPCR): AQP3
# Method: as §1
# TGM1 = assay: Expression of transcripts in human keratinocytes (RT-qPCR): TGM1
# Method: as §1
# CNFN = assay: Expression of transcripts in human keratinocytes (RT-qPCR): CNFN
# Method: as §1
# CLDN1 = assay: Expression of transcripts in human keratinocytes (RT-qPCR): CLDN1
# Method: as §1
smiles,measurement,setting,value
"CC1=C(/C=C/C(C)=C/C=C/C(C)=C/C(=O)O)C(C)(C)CCC1 [Retinoic acid, retinoic acid]",relative expression of SPRR1A,SPRR1A,0.26
same,relative expression of AQP3,AQP3,1.04
same,relative expression of TGM1,TGM1,0.49
same,relative expression of CNFN,CNFN,0.46
same,relative expression of CLDN1,CLDN1,0.85
